Experimental data published in patent US5565200A, “Pharmaceutical preparations derived from korean mistletoe” (priority 1995, dated 1996).

Key:
[1] = system: C3H Mammary adenocarcinoma 16/C; test: Growth of subcutaneous transplants of C3H mammary adenocarcinoma 16/C in B6C3F1 female mice; format: in vivo; details: 98 mg/kg, i.p., qd (1,7,14,21)
Excerpt: Anticancer activities of n-T4GEN were studied in animals bearing subcutaneous transplants of C3H Mammary adenocarcinoma 16/C. This tumor is maintained as a lung passed tumor in C3H female mice. In this example, tumors (1×10^6 cells) were transplanted (S.C.) in 18-20 g B6C3F^1 hybrid female mice. On the following day, the tumor bearing animals were randomized and separated into different treatment groups (10 mice per group). There were 15 animals in the control group who received only physiological saline during the treatment periods. […] Animals were weighed on days 5, 9 and 14 to assess toxic effects. Tumors were measured on days 21, 28 post transplants and the results are represented as tumor weights using formula [formula]

[2] = Weight change of tumor-bearing mice to assess toxic effects; format: in vivo; details: 98 mg/kg, i.p., qd (1,7,14,21)
Excerpt: Anticancer activities of n-T4GEN were studied in animals bearing subcutaneous transplants of C3H Mammary adenocarcinoma 16/C. This tumor is maintained as a lung passed tumor in C3H female mice. In this example, tumors (1×10^6 cells) were transplanted (S.C.) in 18-20 g B6C3F^1 hybrid female mice. On the following day, the tumor bearing animals were randomized and separated into different treatment groups (10 mice per group). There were 15 animals in the control group who received only physiological saline during the treatment periods. The treatments (i.p.) were started 48 hours after the transplants and given for a duration of 14 days (daily single injections). Animals were weighed on days 5, 9 and 14 to assess toxic effects. Tumors were measured on days 21, 28 post transplants and the results are represented as tumor weights using formula [formula]

O=c1[nH]cc(F)c(=O)[nH]1 [5Fluorouracil]
Tumor Free Animals (day 93) [1]: 0/6
Tumor Inhibition % [1]: 100%
Tumor Wts (day 21) [1]: 0.00
Δ Wts (g) (day 14) [2]: +1.77 g
